Measurements published in the NIST ThermoML archive (doi:10.1021/je900969u).
± gives the expanded uncertainty stated by the source.

Legend:
[1] = 101 kPa, Liquid
[2] = xn = mol fraction of the nth substance listed; details: 101 kPa, Liquid

CN1CCNCC1 [N-methylpiperazine]
[1]
Details | mass density [kg/m3] | viscosity [mPa·s]
298.15 K | 899.28 ± 0.85 | 1.856 ± 0.045
303.15 K | 894.9 ± 0.87 | 1.544 ± 0.037
313.15 K | 886.07 ± 0.91 | 1.25 ± 0.031

CN1CCNCC1 [N-methylpiperazine] + CC1CCCCC1
[2]
Details | mass density, 298.15 K [kg/m3] | mass density, 303.15 K [kg/m3] | mass density, 313.15 K [kg/m3] | viscosity, 298.15 K [mPa·s] | viscosity, 303.15 K [mPa·s] | viscosity, 313.15 K [mPa·s]
x1 = 0.0988 | 775.01 ± 1.8 | 770.65 ± 1.9 | 761.89 ± 1.9 | 0.716 ± 0.02 | 0.676 ± 0.019 | 0.582 ± 0.017
x1 = 0.1972 | 785.84 ± 1.7 | 781.44 ± 1.7 | 772.64 ± 1.8 | 0.751 ± 0.02 | 0.698 ± 0.019 | 0.604 ± 0.017
x1 = 0.297 | 797.52 ± 1.6 | 793.12 ± 1.6 | 784.26 ± 1.6 | 0.801 ± 0.021 | 0.73 ± 0.02 | 0.634 ± 0.018
x1 = 0.3964 | 811.57 ± 1.5 | 805.63 ± 1.5 | 796.74 ± 1.5 | 0.867 ± 0.023 | 0.776 ± 0.021 | 0.674 ± 0.018
x1 = 0.4953 | 822.93 ± 1.4 | 818.51 ± 1.4 | 809.59 ± 1.4 | 0.945 ± 0.025 | 0.84 ± 0.022 | 0.725 ± 0.019
x1 = 0.5948 | 836.59 ± 1.3 | 832.17 ± 1.3 | 823.26 ± 1.3 | 1.057 ± 0.027 | 0.918 ± 0.024 | 0.791 ± 0.021
x1 = 0.6952 | 850.68 ± 1.1 | 846.26 ± 1.2 | 837.34 ± 1.2 | 1.19 ± 0.03 | 1.022 ± 0.026 | 0.868 ± 0.022
x1 = 0.7969 | 865.9 ± 1.1 | 861.49 ± 1.1 | 852.58 ± 1.1 | 1.362 ± 0.034 | 1.164 ± 0.029 | 0.97 ± 0.024
x1 = 0.8977 | 881.36 ± 0.95 | 876.96 ± 0.97 | 868.08 ± 1 | 1.585 ± 0.039 | 1.326 ± 0.032 | 1.087 ± 0.027
x1 = 1 | 899.28 ± 0.85 | 894.9 ± 0.87 | 886.07 ± 0.91 | 1.856 ± 0.045 | 1.544 ± 0.037 | 1.25 ± 0.031
